Values belong to the compound of their own block, whether it stands above or below them. Numbered stars: 1 amine (or outer) side, 2 acyl side, 3 side chain; on linkers, the order of the positions; unused ones are H or OH. Square brackets hold non-standard residues; d marks the D form. Peptide text beside a SMILES is read from it. Haic = O=C1[C@@H](N[*:1])CCc2cccc3c2N1[C@H](C(=O)[*:2])C3; dTrp(2-Me) = Cc1[nH]c2ccccc2c1C[C@@H](N)C(=O)O
Columns and labels:
[1] = tested on: Human lung carcinoma cells (CaLu1); format: cell-based; details: for EC50: 3 h; for effect on basal and EGF-stimulated 3H-thymidine incorporation: 10-6 mol/l compound, 20 h + 4 h incubation, FIG. 4
Procedure: Human lung carcinoma cells (CaLu1), T47D and MDA-MB231, respectively, human oestrogen dependent and oestrogen independent breast cancer cell lines were purchased from the ATCC (Rockville, Md., USA). Cells were routinely cultured in […] flasks at 37° C., 5% CO2 and 95% humidified atmosphere in RPMI supplemented with 10% FCS, penicillin-streptomycin and fungizone. When a subconfluent state was reached, cells were detached from the flasks with trypsin/EDTA. DNA synthesis was evaluated by ^3 H-thymidine incorporation as described in G. Muccioli et al., Journal of Endocrinology, 153, 365-371, 1997. […] After incubation for 20 hours, ^3 H-thymidine was added and incubation was continued for a further 4 hours. The reaction was halted and the cells were harvested onto glass-fiber filter strips. Incorporation of ^3 H-thymidine was measured in a scintillation counter.

[2] = tested on: Human lung carcinoma cells (CaLu1); experiment: Cell growth study (cell count), human lung carcinoma cells; format: cell-based; details: FIG. 6
Procedure: (§1) Human lung carcinoma cells (CaLu1), T47D and MDA-MB231, respectively, human oestrogen dependent and oestrogen independent breast cancer cell lines were purchased from the ATCC (Rockville, Md., USA). Cells were routinely cultured in […] flasks at 37° C., 5% CO2 and 95% humidified atmosphere in RPMI supplemented with 10% FCS, penicillin-streptomycin and fungizone. When a subconfluent state was reached, cells were detached from the flasks with trypsin/EDTA. Cell growth studies were carried out as described in P.Cassoni et al., Virchows Archiv, 425, 467-472, 1994. Cells were seeded in triplicate in 24-multiwell plates at a density of 5,000-10,000 cells/ml. Twenty-four hours after plating the medium was changed. Hexarelin or Ala-Hexarelin were added where requested at concentrations ranging from 10^-8 to 10^-6 mol/l. The medium was changed every 48 hours. Cells were counted at 48 and 72 or 96 hours of treatment in a double blind analysis by two independent investigators using a haemocytometer.

GHRP receptors = experiment: GHRP receptor assay: 125I-Tyr-Ala-Hexarelin binding to tumor membranes; parameters: species or system human; details: for competition with 125I-Tyr-Ala-Hexarelin for the tumoral binding sites (displacement of radiotracer binding): membranes of a non-endocrine carcinoma of lung origin, FIG. 3
Procedure: Surgical tumor specimens were collected from the Department of Biomedical Sciences and Human Oncology (Division of Pathology) of the University of Turin. A tumor fragment adjacent to that used for histopathological diagnosis was immediately frozen at -80° C. and stored for 2 to 60 months until further processed for binding studies. Samples of 13 invasive breast carcinoma (10 ductal and 3 lobular), 14 non-endocrine lung carcinomas (5 squamous cell and 9 adenocarcinomas), 11 endocrine tumors of the lung, 9 endocrine tumors of the pancreas and 12 thyroid carcinomas (7 of follicular origin and 5 of medullary origin) were used. Non-neoplastic normal tissues of the corresponding organs were also analysed in parallel with the individual tumors.
GHRP receptors were measured on tumor membranes as described in G. Muccioli et al., Journal of Endocrinology, 157, 99-106, 1998, using ^125 I-Tyr-Ala-Hexarelin as a ligand. Specific binding was calculated as the difference between binding in the absence and in the presence of excess unlabelled Tyr-Ala-Hexarelin and expressed as a percentage of the radioactivity added. Saturation and competition binding studies were analyzed with the GraphPAD Prism 2 program (GraphPAD Software, San Diego, Calif., USA).

[3] = tested on: human breast cancer T47D cells; experiment: Cell growth study (cell count), T47D cells; format: cell-based; details: FIG. 7a
Procedure: as §1

[4] = tested on: human breast cancer MDA-MB231 cells; experiment: Cell growth study (cell count), MDA-MB231 cells; format: cell-based; details: FIG. 8a
Procedure: as §1

[5] = 10^-7 mol/l and 10^-6 mol/l, any time point tested

- competition with 125I-Tyr-Ala-Hexarelin for the tumoral binding sites (displacement of radiotracer binding) (GHRP receptors): negligible displacement
Compound: CC(C)(N)C(=O)N[C@H](COCc1ccccc1)C(=O)N1CCC2(CC1)CN(S(C)(=O)=O)c1ccccc12 [MK0677, reference compound]
- effect on basal and EGF-stimulated 3H-thymidine incorporation ([1]; EGF 1 ng/ml): slight inhibition

- EC50 [1]: 0.065 µM
Compound: Cc1[nH]c2ccccc2c1C[C@@H](NC(=O)[C@H](Cc1c[nH]cn1)NC(=O)[C@H](C)NC(=O)[C@@H](N)Cc1ccc(O)cc1)C(=O)N[C@@H](C)C(=O)N[C@@H](Cc1c[nH]c2ccccc12)C(=O)N[C@H](Cc1ccccc1)C(=O)N[C@@H](CCCCN)C(N)=O [Tyr-Ala-Hexarelin, Tyr-Ala-His-D-Mrp-Ala-Trp-D-Phe-Lys-NH2] (H-YAH[dTrp(2-Me)]AW[dF]K-NH2)

- binding of 125I-Tyr-Ala-Hexarelin to tumor membranes as a function of radioligand concentration (saturation, Scatchard) (GHRP receptors; non-endocrine carcinoma of lung origin, FIG. 2): saturable specific binding
Compound: ^125 I-Tyr-Ala-His-D-Mrp-Ala-Trp-D-Phe-Lys-NH2 [^125 I-Tyr-Ala-Hexarelin]

Continued, compound first:

Compound: NCCCC[C@H](NC(=O)[C@@H](Cc1ccccc1)NC(=O)[C@H](Cc1c[nH]c2ccccc12)NC(=O)[C@@H](CCCCN)NC(=O)[C@@H](Cc1c[nH]c2ccccc12)NC(=O)[C@@H](N)Cc1c[nH]cn1)C(N)=O [(D-Lys)3 -GHRP6, His-D-Trp-D-Lys-Trp-D-Phe-Lys-NH2] (H-H[dW][dK]W[dF]K-NH2)
- EC50 [1]: 0.09 µM

Compound: Cc1[nH]c2ccccc2c1C[C@@H](NC(=O)[C@H](Cc1c[nH]cn1)NC(=O)[C@H](C)N)C(=O)N[C@@H](C)C(=O)N[C@@H](Cc1c[nH]c2ccccc12)C(=O)N[C@H](Cc1ccccc1)C(=O)N[C@@H](CCCCN)C(N)=O [Ala-Hexarelin, Ala-His-D-Mrp-Ala-Trp-D-Phe-Lys-NH2] (H-AH[dTrp(2-Me)]AW[dF]K-NH2)
- EC50 [1]: 0.1 µM

Compound: Cc1[nH]c2ccccc2c1C[C@@H](NC(=O)[C@@H]1Cc2cccc3c2N1C(=O)[C@@H](N)CC3)C(=O)N[C@H](CCCCN)C(=O)N[C@@H](Cc1c[nH]c2ccccc12)C(=O)N[C@H](Cc1ccccc1)C(=O)N[C@@H](CCCCN)C(N)=O [EP80317, HAIC-D-Mrp-D-Lys-Trp-D-Phe-Lys-NH2] (Haic-[dTrp(2-Me)][dK]W[dF]K-NH2)
- EC50 [1]: 0.056 µM

Compound: Cc1[nH]c2ccccc2c1C[C@@H](NC(=O)[C@@H](N)Cc1cnc[nH]1)C(=O)N[C@@H](C)C(=O)N[C@@H](Cc1c[nH]c2ccccc12)C(=O)N[C@H](Cc1ccccc1)C(=O)N[C@@H](CCCCN)C(N)=O [Hexarelin, His-D-Mrp-Ala-Trp-D-Phe-Lys-NH2] (H-H[dTrp(2-Me)]AW[dF]K-NH2)
- decrease in cell number compared with control at higher concentrations [2, 5]: further increased
- decrease in cell number compared with control ([2]; 10^-8 mol/l, after 96 hours): -47%
- competition with 125I-Tyr-Ala-Hexarelin for the tumoral binding sites (displacement of radiotracer binding) (GHRP receptors): displaced in a dose-dependent fashion
- decrease in cell number compared with control at higher concentrations [3, 5]: further increased
- decrease in cell number compared with control ([3]; 10^-8 mol/l, after 96 hours): -54%
- effect on basal and EGF-stimulated 3H-thymidine incorporation ([1]; EGF 1 ng/ml): able to inhibit both basal and the EGF-stimulated
- inhibition of the proliferative effect of EGF with increasing concentrations ([1]; 10^-8 to 10^-6 mol/l, EGF 1 ng/ml, FIG. 5): inhibited in a dose-dependent fashion
- EC50 [1]: 0.08 µM
- decrease in cell number compared with control at higher concentrations [4, 5]: further increased
- decrease in cell number compared with control ([4]; 10^-8 mol/l, after 72 hours): -33%

Compound: C[C@H](N)C(=O)NCC(=O)N[C@H]1CSSC[C@@H](C(=O)O)NC(=O)[C@H](CO)NC(=O)[C@H]([C@@H](C)O)NC(=O)[C@H](Cc2ccccc2)NC(=O)[C@H]([C@@H](C)O)NC(=O)[C@H](CCCCN)NC(=O)[C@H](Cc2c[nH]c3ccccc23)NC(=O)[C@H](Cc2ccccc2)NC(=O)[C@H](Cc2ccccc2)NC(=O)[C@H](CC(N)=O)NC(=O)[C@H](CCCCN)NC1=O [somatostatin]
- competition with 125I-Tyr-Ala-Hexarelin for the tumoral binding sites (displacement of radiotracer binding) (GHRP receptors): no competition

Compound: GHRH: Human GHRH (GHRH 1-44) purchased from Bachem
- competition with 125I-Tyr-Ala-Hexarelin for the tumoral binding sites (displacement of radiotracer binding) (GHRP receptors): no competition

— patent US6124263A, “Treatment of tumors by administration of growth hormone releasing compounds and their antagonists” (Asta Medica AG, priority 1998, dated 2000)
